# Laboratory results published in patent US20190307843A1, “SINGLE DOSE METHODS FOR PREVENTING AND TREATING FUNGAL INFECTIONS” (Cidara Therapeutics, Inc., priority 2016, published 2019).
# “And” between values parts separate entries of the source, which are not always exact repeats. Equal entries are not always repeated. Starred links: 1 amine or outer side, 2 acyl side, 3 side chain; linkers in the order of their positions; H or OH if unused. Positions of bridges follow the written chain, without caps; N, C: chain ends. Non-standard residues stand in square brackets, D forms with d. Residues, ends and D or L forms follow the SMILES beside them. *: point of attachment. pTerphenylCO(4''-OnC5H11) = CCCCCOc1ccc(-c2ccc(-c3ccc(C(=O)*)cc3)cc2)cc1; Orn(4R-OH,5R-OH) = O=C([C@H](C[C@@H](O)[C@@H](O)N[*:3])N[*:1])[*:2]; hTyr(3S-OH,4S-OH) = N[C@H](C(=O)O)[C@H](O)[C@@H](O)c1ccc(O)cc1; Pro(3S-OH,4S-Me) = C[C@H]1CN[C@H](C(=O)O)[C@H]1O; Hyp = O=C(O)[C@@H]1C[C@@H](O)CN1
# What was measured:
# C. auris = assay: Murine model of disseminated candidiasis, C. auris infection, kidney CFU and survival; type: in vivo, Candida auris; conditions: amphotericin B 0.3 mg/kg IP, 2 doses; Day 14
# [1] = test system: Aspergillus fumigatus (ATCC 13073); assay: Neutropenic mouse aspergillosis model, survival; type: in vivo; conditions: AmB 2 mg/kg IP one dose; 10 days
# [2] = test system: Aspergillus fumigatus (ATCC 13073); assay: Prophylaxis, neutropenic ICR mouse disseminated aspergillosis model, survival; conditions: amphotericin B at 3 mg/kg IP administered one hour after infection
# C. glabrata = assay: In vitro susceptibility testing (CLSI M27-A3), C. glabrata; type: cell-based, Candida glabrata; conditions: Nakaseomyces glabratus, 24 h
# Method: (§1) Ten clinical Candida strains were used for the in vivo treatment studies, including four C. albicans, three C. glabrata, and three C. parapsilosis strains (Table 15). This group was selected to encompass phenotypic variability in susceptibility to triazoles and echinocandins and based on similar fitness in the animal model as defined by the amount of growth in control animals over 24 h. The organisms were maintained, grown, and quantified on Sabouraud's dextrose agar (SDA) plates.
# (§2) In vitro susceptibility testing. All isolates were tested in accordance with the standards in CLSI document M27-A3. The MICs were determined visually after 24 h of incubation as the lowest concentration of drug that causes a significant diminution (50%) of growth compared to controls. MICs were determined on three separate occasions in duplicate.
# C. parapsilosis = assay: In vitro susceptibility testing (CLSI M27-A3), C. parapsilosis; type: cell-based, Candida parapsilosis; conditions: Lodderomyces parapsilosis, 24 h
# Method: as §1, §2
# C. albicans = assay: In vitro susceptibility testing (CLSI M27-A3), C. albicans; type: cell-based; conditions: Candida albicans, 24 h
# Method: as §1, §2
# A. fumigatus AF293 [3] = assay: Pulmonary aspergillosis, prophylaxis, neutropenic ICR mice (Examples 17, 18), survival; type: in vivo, Aspergillus fumigatus
# Method: Intranasal infection with A. fumigatus AF293 (10^5 CFU/mouse) on Day 0. Prophylaxis CD101 as a single dose (IP; 5, 10, 20 mg/kg) or posaconazole (PO; 2 and 10 mg/kg) 1 day prior to infection. Survival monitored for 10 days.
# Intranasal challenge with A. fumigatus AF293 (10^5 CFU/mouse) was initiated on Day 0 and prophylaxis with CD101 as a single dose (IP; 5, 10, 20 mg/kg) or posaconazole (PO; 2 and 10 mg/kg) was started 1 day prior to infection. Survival was monitored for 10 days.
# A. fumigatus AF293 [4] = assay: Murine model of pulmonary aspergillosis (Example 19), terminal lung burden; type: in vivo, Aspergillus fumigatus
# Method: A secondary endpoint for the study was terminal lung tissue burden. Immediately following confirmation of death, carcasses were frozen at −20° C. prior to tissue dissection and processing. The frozen carcasses were thawed at room temperature, the lungs removed and placed into pre-weighed bead-beating tubes containing 2 mL of PBS and subjected to mechanical disruption. Organ homogenates were diluted further in PBS and quantitatively cultured for A. fumigatus onto SABC and incubated at 30° C. for 24-48 hours.
# 2. Lung tissue burden data were analysed using the non-parametric Kruskal-Wallis test and if this was statistically significant all pairwise comparisons were analyzed (Conover-Inman).
# A. fumigatus AF293 [5] = assay: Murine model of pulmonary aspergillosis (Example 19), survival; conditions: for Mean Survival / Median Survival: Day 1 pre-infection
# [6] = Posaconazole 10 mg/kg PO Day −1
# [7] = Vehicle vs. Posaconazole 10 mg/kg
compound,measurement,setting,value
"C[C@@H]1[C@H](O)[C@@H](C)/C=C/C=C/C=C/C=C/C=C/C=C/C=C/[C@H](O[C@@H]2O[C@H](C)[C@@H](O)[C@H](N)[C@@H]2O)C[C@@H]2O[C@](O)(C[C@@H](O)C[C@@H](O)[C@H](O)CC[C@@H](O)C[C@@H](O)CC(=O)O[C@H]1C)C[C@H](O)[C@H]2C(=O)O [AmB, amphotericin B, reference compound]",percent survival at the end of the study,C. auris,30%
same,survival vs vehicle,[1],significantly longer survival than vehicle
same,14-day survival,[2],significant increase in the 14-day survival
"CCCCCOc1ccc(-c2ccc(-c3ccc(C(=O)N[C@H]4C[C@@H](O)[C@@H](O)NC(=O)[C@@H]5[C@@H](O)[C@@H](C)CN5C(=O)[C@H]([C@@H](C)O)NC(=O)[C@H]([C@H](O)[C@@H](O)c5ccc(O)cc5)NC(=O)[C@@H]5C[C@@H](O)CN5C(=O)[C@H]([C@@H](C)O)NC4=O)cc3)cc2)cc1 [Anidulafungin, anidulafungin, reference compound] ({pTerphenylCO(4''-OnC5H11)}-[Orn(4R-OH,5R-OH)]T[Hyp][hTyr(3S-OH,4S-OH)]T[Pro(3S-OH,4S-Me)]; lactam 1-C)",MIC,C. glabrata; C. glabrata 5592,0.06 µg/mL
same,MIC,C. glabrata; C. glabrata 10956,1 µg/mL
same,MIC,C. glabrata; C. glabrata 35315,0.25 µg/mL
same,MIC,C. parapsilosis; C. parapsilosis 20423.072,1 µg/mL
same,MIC,C. parapsilosis; C. parapsilosis 20477.048,2 µg/mL
same,MIC,C. parapsilosis; C. parapsilosis 20519.069,4 µg/mL
same,MIC,C. albicans; C. albicans 98-17,0.03 µg/mL
same,MIC,C. albicans; C. albicans 98-210,0.015 µg/mL
same,MIC,C. albicans; C. albicans 580,0.015 µg/mL
same,MIC,"C. albicans; C. albicans K-1, 50% growth diminution",0.015 µg/mL
"CC[C@@H]([C@H](C)O)n1ncn(-c2ccc(N3CCN(c4ccc(OC[C@@H]5CO[C@@](Cn6cncn6)(c6ccc(F)cc6F)C5)cc4)CC3)cc2)c1=O [Posaconazole, posaconazole]",survival,A. fumigatus AF293 [3]; posaconazole 2 mg/kg PO 1 day prior to infection,no survivors
same,survival rate relative to control,A. fumigatus AF293 [3]; posaconazole 10 mg/kg PO 1 day prior to infection,statistically-significant increase in survival rate relative to control
same,Group Geometric mean (lung burden),A. fumigatus AF293 [4]; Posaconazole 2 mg/kg PO Day −1,1.14 × 10^4 CFU/g
same,Log10 Group Geometric mean (lung burden),A. fumigatus AF293 [4]; Posaconazole 2 mg/kg PO Day −1,4.06 CFU/g
same,Log10 reduction from vehicle control,A. fumigatus AF293 [4]; Posaconazole 2 mg/kg PO Day −1,0.11 CFU/g
same,Group Geometric mean (lung burden),A. fumigatus AF293 [4]; [6],2.75 × 10^3 CFU/g
same,Log10 Group Geometric mean (lung burden),A. fumigatus AF293 [4]; [6],3.44 CFU/g
same,Log10 reduction from vehicle control,A. fumigatus AF293 [4]; [6],0.73 CFU/g
same,"survival time post infection, range",A. fumigatus AF293 [5]; Posaconazole 2 mg/kg PO once,69 to 114 h
same,Mean Survival,A. fumigatus AF293 [5]; Posaconazole 2 mg/kg PO once,77.5 h
same,Median Survival,A. fumigatus AF293 [5]; Posaconazole 2 mg/kg PO once,69.0 h
same,"survival time post infection, range",A. fumigatus AF293 [5]; Posaconazole 10 mg/kg PO once,69 to 240 h
same,Mean Survival,A. fumigatus AF293 [5]; Posaconazole 10 mg/kg PO once,212 h and 211.5 h
same,Median Survival,A. fumigatus AF293 [5]; Posaconazole 10 mg/kg PO once,cannot estimate
same,mice surviving to the end of the study,"A. fumigatus AF293 [5]; Posaconazole 10 mg/kg PO, 6/treatment group, 10 days",5
same,"Wilcoxon (Peto-Prentice) test, survival",A. fumigatus AF293 [5]; Vehicle vs. Posaconazole 2 mg/kg,P = 0.0391
same,"Log-Rank test, survival",A. fumigatus AF293 [5]; [7],P = 0.0182
same,"Wilcoxon (Peto-Prentice) test, survival",A. fumigatus AF293 [5]; [7],P = 0.0441
same,survival compared to the vehicle mice,A. fumigatus AF293 [5]; posaconazole 2 mg/kg once one day pre-infection,did not show any improvement in survival
same,mice surviving to the end of the study,A. fumigatus AF293 [5]; posaconazole 10 mg/kg once 1 day pre-infection,> 80%
